System: Pyricularia oryzae
Format: in vivo
Conditions: individual active compound, 1 ppm in the spray liquor; protective spray, inoculated next day, rated after 6 days

Compared with `CC1CCN(c2c(-c3c(F)cccc3Cl)c(Cl)nc3ncnn23)CC1` [A], `CC1CCN(c2c(-c3c(F)cc(F)cc3F)c(Cl)nc3ncnn23)CC1` [I, 5-chloro-7-(4-methylpiperidin-1-yl)-6-(2,4,6-trifluorophenyl)-[1,2,4]triazolo[1,5-a]pyrimidine] is higher in “Efficacy in % of the untreated control” value: 0% for the first, 11% for the second.

Compared with `CC(Nc1c(-c2c(F)cc(F)cc2F)c(Cl)nc2ncnn12)C(F)(F)F` (centres unmarked) [B], `CCCC1COC(Cn2cncn2)(c2ccc(Cl)cc2Cl)O1` (centres unmarked) [II, 1-[2-(2,4-dichlorophenyl)-4-propyl-[1,3]dioxolan-2-ylmethyl]-1H-[1,2,4]triazole] is lower in “Efficacy in % of the untreated control” value: 11% for the first, 0% for the second.

Same assay, conditions: individual active compound, 4 ppm in the spray liquor; protective spray, inoculated next day, rated after 6 days

Compared with `CC1CCN(c2c(-c3c(F)cccc3Cl)c(Cl)nc3ncnn23)CC1` [A], `CC1CCN(c2c(-c3c(F)cc(F)cc3F)c(Cl)nc3ncnn23)CC1` [I, 5-chloro-7-(4-methylpiperidin-1-yl)-6-(2,4,6-trifluorophenyl)-[1,2,4]triazolo[1,5-a]pyrimidine] is higher in “Efficacy in % of the untreated control” value: 11% for the first, 33% for the second.

Going from `CC(Nc1c(-c2c(F)cc(F)cc2F)c(Cl)nc2ncnn12)C(F)(F)F` (centres unmarked) [B] to `CCCC1COC(Cn2cncn2)(c2ccc(Cl)cc2Cl)O1` (centres unmarked) [II, 1-[2-(2,4-dichlorophenyl)-4-propyl-[1,3]dioxolan-2-ylmethyl]-1H-[1,2,4]triazole], the “Efficacy in % of the untreated control” value falls from 33% to 0%.

From patent US20070082915A1 (priority 2003, published 2007)
